Values quoted from earlier work, collected in patent publication US9943555B2, “Bacteria engineered to reduce hyperphenylalaninemia” (Synlogic, Inc., priority 2015, dated 2018).

Tested on: patients / subjects with phenylketonuria

For `C[C@H](O)[C@H](O)[C@H]1CNc2nc(N)[nH]c(=O)c2N1` [Kuvan, tetrahydrobiopterin], the side effects is given as “gastritis and severe allergic reactions”.
